Values of other authors, collected in patent US20150132345A1, “NITRIC OXIDE-SEQUESTERING TOPICAL FORMULATIONS” (priority 2011, published 2015).

Columns and labels:
Conditions in all cases: multiple 30 minutes treatments of 160 ppm nitric oxide
[1] = tested on: Staphylococcus aureus
[2] = tested on: Escherichia coli
[3] = tested on: Pseudomonas aeruginosa

[N]=O [nitric oxide]
decrease in the bacterial load [1]: > 5 log 10 colony forming unit per milliliter (CFU/ml)
decrease in the bacterial load [2]: > 5 log 10 colony forming unit per milliliter (CFU/ml)
decrease in the bacterial load [3]: > 5 log 10 colony forming unit per milliliter (CFU/ml)
